Assay results reported in patent US11376228B2 (Genifarm Laboratories Inc, priority 2018, dated 2022).

Key:
Format in all cases: cell-based
[1] = test system: human prostate cancer cells PC3; experiment: MTT assay, proliferation of human prostate cancer cells PC3; details: for IC50: Homo sapiens, PC3, MTT, 48 h, 0-32 μM, read-out: IC50 on the proliferation of human prostate cancer cells PC3; for inhibitory effects on human prostate cancer cells PC3 (in words): PC3, summary of Table 4; for effect compared with control gossypol I-A9, PC3: PC3, versus gossypol I-A9
[2] = test system: human gastric cancer cells MKN45; experiment: MTT assay, proliferation of human gastric cancer cells MKN45; details: for IC50: Homo sapiens, MKN-45, MKN45, MTT, 48 h, 0-60 μM, read-out: IC50 on the proliferation of human gastric cancer cells MKN45; for inhibitory effects on human gastric cancer cells MKN45 (in words): MKN45, summary of Table 1; for effect compared with control gossypol I-A9, MKN45: MKN45, versus gossypol I-A9
Method: (§1) The original culture medium for human gastric cancer cells MKN45 was removed, and human gastric cancer cells MKN45 were rinsed with 2 mL of phosphate buffer saline (PBS), digested with 0.5 mL of pancreatic enzyme for 3 min. 2 mL of culture medium was added to the cells and the mixture was transferred to a centrifuge tube. The mixture was centrifuged (200 g) for 5 min. The supernatant was removed. 2 mL of culture medium was sprayed five times to the remaining solution. 0.5 mL of cell suspension was transferred to an Eppendorf (EP) tube and the cells were counted. The cells were cultured on a 96-well plate, each well having 2000 cells, 3 wells for each compound. The numbers of the required cells and wells and the amount of culture medium were calculated. The cells were diluted by the culture medium. 100 μL culture medium was added to each well and were evenly dispersed, each well containing 2000 cells. The cells were transferred to the wells using a pipette, and cultured in an incubator.
(§2) (2) Adding Compounds to Culture Medium
(§3) The original culture medium was discarded, and the mother liquor of each compound was diluted to final concentrations of 0, 5, 15, 30, 45 and 60 μM, respectively. Each diluent was uniformized. To each head of a multichannel pipette, 100 μL of the diluent was introduced. Three heads were employed. The diluents were added to 3 marked wells (the cells were undamaged) of a tilted 96-well plate, respectively. Different concentrations of diluents were added to three different marked wells and evenly mixed by alternately sucking and blowing with the multichannel pipette 3 times. The 96-well plate was shaken slightly twice, and cultured in a CO2 incubator.
(§4) The cells were cultured in different compounds for 48 h and were then detected. Specifically, a clean bench was turned on for 15 min, and phosphate buffer saline (PBS) was pre-heated in a warm water bath for 15 min. MTT was taken out of a refrigerator at −20 degrees, protected from light and thawed (MTT stock solution was 5 mg/mL). MTT and a culture medium were mixed evenly in a V-shaped groove to yield a mixture comprising 500 μg/mL MTT and a culture medium (a volume ratio thereof being 1:10). 100 μL of the prepared MTT mixture was added to each well of the 96-well plate using the multichannel pipette, and then incubated at 37° C. for an appropriate time (1 h), thereby reducing the MTT to formazan (purple crystals formed in the cells under a microscope, which were different in medicated cells and unmedicated cells). The upper liquid was removed with a white pipette tip attached to a vacuum pump. For each concentration of the compounds, 3 pipette tips were employed. After the incubation, the MTT mixture was discarded, and then 100 μL of DMSO was added to each well using the multichannel pipette. The 96-well plate was shaken in a shaker for 10 min (until the purple crystals were dissolved in the cells under the microscope).
The absorbance value of the cells was measured at a wavelength of 550 nm with a microplate reader. The survival rate of the cells treated with different concentrations of compounds was calculated to make a scatter plot. The IC50 results of each compound on the proliferation of human gastric cancer cells MKN45 were shown in Table 1, where Gossypol I-A9 is a control sample.

[3] = test system: human lung cancer cells A549; experiment: MTT assay, proliferation of human lung cancer cells A549; details: for inhibitory effects on human lung cancer cells A549 (in words): A549, summary of Table 3; for effect compared with control gossypol I-A9, A549: A549, versus gossypol I-A9; for IC50: Homo sapiens, A549, MTT, 48 h, 0-80 μM, read-out: IC50 on the proliferation of human lung cancer cells A5499
Method: as §1, with “lung” for “gastric”, “A549” for “MKN45”
as §2
as §3, with “10, 20,” for “15,”, “60” for “45”, “80” for “60”
as §4
The absorbance value of the resulting solution was detected at a wavelength of 550 nm with a microplate reader. The survival rate of cells treated with different concentrations of drugs was calculated in accordance with the requirements to make a scatter plot. The IC50 results of each compound on the proliferation of human lung cancer cells A549 were shown in Table 3, where Gossypol I-A9 is a control sample.

SMILES	IC50 [1] [µM]	inhibitory effects on human prostate cancer cells PC3 (in words) [1]	effect compared with control gossypol I-A9, PC3 [1]	other results
Cc1c(O)c(O)c(C=O)c2c1C(c1ccc(C(F)(F)F)cc1)CC2 (centres unmarked) [Compound I-5]	7.09	significant inhibitory effects	superior than the gossypol I-A9	–
Cc1cc(COCc2ccccc2)c(C=O)c(O)c1O [Compound I-21, 6-((benzyloxy)methyl)-2,3-dihydroxy-4-methylbenzaldehyde]	8.09	significant inhibitory effects	superior than the gossypol I-A9	–
Cc1c(O)c(O)c(C=O)c(CC=C(c2ccccc2)c2ccccc2)c1-c1ccccc1 [Compound I-24]	7.24	significant inhibitory effects	superior than the gossypol I-A9	–
Cc1c(O)c(O)c(C=O)c(COCc2ccccc2)c1-c1ccccc1 [Compound I-25]	8.32	significant inhibitory effects	superior than the gossypol I-A9	–
Cc1c(O)c(O)c(C=O)c(COCc2ccccc2)c1-c1ccc(F)cc1 [Compound I-26]	10.1	significant inhibitory effects	–	IC50 [2]: 16.8 µM; inhibitory effects on human gastric cancer cells MKN45 (in words) [2]: significant inhibitory effects
Cc1c(O)c(O)c(C=O)c(COCc2ccccc2)c1-c1ccccc1C#N [Compound I-28]	–	–	–	inhibitory effects on human lung cancer cells A549 (in words) [3]: inhibitory effects; effect compared with control gossypol I-A9, A549 [3]: slightly inferior to that of the Gossypol I-A9; IC50 [3]: 67.6 µM
CCc1cc(COCc2ccccc2)c(C=O)c(O)c1O [Compound I-31]	7.25	significant inhibitory effects	superior than the gossypol I-A9	–
Cc1c(C)c(COCc2ccccc2)c(C=O)c(O)c1O [Compound I-39]	–	–	–	IC50 [2]: 6.62 µM; inhibitory effects on human gastric cancer cells MKN45 (in words) [2]: significant inhibitory effects; effect compared with control gossypol I-A9, MKN45 [2]: better than the control gossypol I-A9
COc1cc(OC)c(Cc2c(C=O)c(O)c(O)c(C)c2-c2ccc(Br)cc2)c(OC)c1 [Compound I-41]	1.76	significant inhibitory effects	superior than the gossypol I-A9	–
COc1cc(OC)c(Cc2c(C=O)c(O)c(O)c(C)c2-c2ccc([N+](=O)[O-])cc2)c(OC)c1 [Compound I-42, 4,5-dihydroxy-6-methyl-4′-nitro-2-(2,4,6-trimethoxybenzyl)-(1,1′-biphenyl)-3-carbaldehyde]	2.8	significant inhibitory effects	superior than the gossypol I-A9	–
CCc1c(O)c(O)c(C=O)c(Cc2c(OC)cc(OC)cc2OC)c1-c1ccccc1 [Compound I-44]	2.91	significant inhibitory effects	superior than the gossypol I-A9	–
Cc1c(O)c(O)c(C=O)c(COCc2ccccc2)c1-c1ccc(C(C)(C)C)cc1 [Compound I-46]	6.41	significant inhibitory effects	superior than the gossypol I-A9	–
Cc1c(O)c(O)c(C=O)c(COCc2ccccc2)c1-c1cccc2ccccc12 [Compound I-47]	8.12	significant inhibitory effects	superior than the gossypol I-A9	–
Cc1c(O)c(O)c(C=O)c(COCc2ccccc2)c1-c1ccsc1 [Compound I-48]	22.4	significant inhibitory effects	–	–
CC(C)c1c(O)c(O)c(C=O)c2c1C(c1ccccc1)CC2 (centres unmarked) [Compound I-50, 5,6-dihydroxy-7-isopropyl-1-phenyl-2,3-dihydro-1H-indene-4-carbaldehyde]	2.88	significant inhibitory effects	superior than the gossypol I-A9	IC50 [2]: 12.3 µM; inhibitory effects on human gastric cancer cells MKN45 (in words) [2]: significant inhibitory effects; effect compared with control gossypol I-A9, MKN45 [2]: better than the control gossypol I-A9
COc1cc(OC)c(Cc2cc(C(C)C)c(O)c(O)c2C=O)c(OC)c1 [Compound I-51]	5.27	significant inhibitory effects	superior than the gossypol I-A9	–
CC(C)c1cc(COCc2ccccc2)c(C=O)c(O)c1O [Compound I-53]	6.65	significant inhibitory effects	superior than the gossypol I-A9	–
CC(C)c1c(O)c(O)c(C=O)c(COCc2ccccc2)c1-c1ccccc1 [Compound I-55]	2.05	significant inhibitory effects	superior than the gossypol I-A9	–
Cc1cc(COCc2ccccc2)c(CO)c(O)c1O [Compound I-96]	–	–	–	inhibitory effects on human gastric cancer cells MKN45 (in words) [2]: significant inhibitory effects
COC(=O)c1c(COCc2ccc(OC)cc2)cc(C)c(OC)c1OC [Compound I-100]	–	significant inhibitory effects	–	–
Cc1cc(CSCc2ccccc2)c(C=O)c(O)c1O [I-A4]	–	–	–	inhibitory effects on human lung cancer cells A549 (in words) [3]: inhibitory effects; effect compared with control gossypol I-A9, A549 [3]: slightly inferior to that of the Gossypol I-A9; IC50 [3]: 58.9 µM
COc1cc(OC)c(Cc2c(C=O)c(O)c(O)c(C)c2-c2ccco2)c(OC)c1 [I-A6, 3-(furan-2-yl)-5,6-dihydroxy-4-methyl-2-(2,4,6-trimethoxybenzyl) benzaldehyde]	3.45	significant inhibitory effects	superior than the gossypol I-A9	–
Cc1c(O)c(O)c(C=O)c(COCc2ccccc2)c1Br [I-A8, 2-((benzyloxy)methyl)-3-bromo-5,6-dihydroxy-4-methylbenzaldehyde]	2.37	significant inhibitory effects	superior than the gossypol I-A9	–
